Test results as given in a compilation of properties of binary mixtures (doi:10.1007/s10953-016-0518-2).

Test: xn = mol fraction of the nth substance listed
Settings: 101 kPa

CC[n+]1ccn(C)c1.F[B-](F)(F)F + OCCO
viscosity [mPa·s]
Settings	x1 = 0.0993	x1 = 0.2001	x1 = 0.3023	x1 = 0.4011	x1 = 0.5003	x1 = 0.598	x1 = 0.7003	x1 = 0.7997	x1 = 0.8997	x1 = 1
303.15 K	10.5	9.63	9.5	–	10.6	11.9	14	16.9	21.4	28
313.15 K	7.54	6.96	6.97	–	7.91	8.98	10.5	12.7	15.9	20.4
323.15 K	5.57	5.22	5.3	5.63	6.21	7.05	8.29	9.9	12.3	15.3
333.15 K	–	–	4.2	4.51	5.02	5.7	6.7	8.07	9.7	12.1

OCCO + CC[n+]1ccn(C)c1.F[B-](F)(F)F
x2 = 0
Settings	viscosity [mPa·s]
303.15 K	13.8
313.15 K	9.62
323.15 K	6.92
